These results are taken from PMC6934184, “Selective DNA-PKcs inhibition extends the therapeutic index of localized radiotherapy and chemotherapy” (The Journal of Clinical Investigation, 2019).

The assay addresses T1, PHKG1 (Homo sapiens, UniProt Q16816).
T1 construct: purchased Thermo Fisher Scientific (Life Technologies) SelectScreen
Nature of the assay: SelectScreen Z'LYTE. The class given is biochemical. The method, boiled down:
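Percent values come from Thermo SelectScreen profiling of NU5455, combining activity and binding assays. CSF1R was run in Z'LYTE format at Km app ATP, and CAMK1 in Adapta format with ATP listed at 10.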

T1 sequence (Q16816 whole entry): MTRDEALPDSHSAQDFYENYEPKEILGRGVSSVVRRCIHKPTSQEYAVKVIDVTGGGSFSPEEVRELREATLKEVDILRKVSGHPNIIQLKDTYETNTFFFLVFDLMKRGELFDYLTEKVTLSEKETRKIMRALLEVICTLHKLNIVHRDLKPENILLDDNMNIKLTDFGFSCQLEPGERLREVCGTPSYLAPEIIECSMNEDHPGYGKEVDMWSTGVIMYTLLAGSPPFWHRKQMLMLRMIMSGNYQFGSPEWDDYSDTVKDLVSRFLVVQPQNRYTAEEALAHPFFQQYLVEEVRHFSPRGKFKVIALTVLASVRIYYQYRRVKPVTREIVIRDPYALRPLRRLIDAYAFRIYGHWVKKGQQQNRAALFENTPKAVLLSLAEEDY

As to `CN(C(=O)CN1CCOCC1)c1ccc2sc3c(-c4cccc5c(=O)cc(N6CC7CCC(C6)O7)oc45)cccc3c2c1` [NU5455], the inhibition – broadly, the change of the read-out against control, counted positive when it falls – at 1 µM was -5%.
